Results: US20240269139A1, “COMPOUNDS FOR TARGETED PROTEIN DEGRADATION OF KINASES” (DANA-FARBER CANCER INSTITUTE, INC., priority 2020, published 2024)

System: protein kinases (human kinome)
Format: cell-based
Conditions: for kinases the bifunctional compound degrades: as stated for the structure in the embodiments; for Kinase hits: kinases significantly downregulated vs DMSO (fold change cutoff −1.25, P-value<0.01), ≤8 h, 0.1-5 μM degrader, 7 cell lines; for Total no. kinase hits: number of degraded kinases per library compound
Description: Although development of targeted protein degraders requires a POI binder, among already-liganded proteins such as kinases, it was hypothesized that different targets would have a different propensity for current approaches to degrader-mediated destruction, which was termed ‘degradability’. […] It was rationalized that the probability of identifying the same kinase as a false positive in multiple treatments is low, therefore this analysis served to also assess the robustness of our data and subsequent interpretations. […] Overall, 62 protein kinases were degraded in more than 10 independent treatments, and remarkably, 9 of these (CDK4, AURKA, FER, WEE1, BLK. LIMK2, CDK6, GAK, LIMK1) were each degraded in at least 40 of the 154 independent treatments, emphasizing their predisposition to induced degradation (FIG. 1G; Appendix I).
Next, the frequency of degradation assessment was corrected for over-representation of molecules in the full dataset by omitting replicate profiling of compounds under different experimental conditions, to remove any bias. […] Unsurprisingly, the top degradable kinases mirror those from the previous analysis (CDK4, AURKA, FER, WEE1, BLK), confirming that in sufficiently large datasets, even with over-representation of certain molecules, frequency of degradation is a good measure of general tractability.

| SMILES | kinases the bifunctional compound degrades | Kinase hits | Total no. kinase hits | logFC (BTK (Q06187-2), experiment wp055) | logFC of BTK (Q06187-2) (Experiment wp055) |
| --- | --- | --- | --- | --- | --- |
| Cn1c(=O)c(-c2c(Cl)cccc2Cl)cc2cnc(Nc3ccc(OCCNC(=O)CCCCCCNC(=O)COc4cccc5c4C(=O)N(C4CCC(=O)NC4=O)C5=O)cc3)nc21 (centres unmarked) [SB1-G-192-1, N-(2-(4-((6-(2,6-dichlorophenyl)-8-methyl-7-oxo-7,8-dihydropyrido[2,3-d]pyrimidin-2-yl)amino)phenoxy)ethyl)-7-(2-((2-(2,6-dioxopiperidin-3-yl)-1,3-dioxoisoindolin-4-1413 yl)oxy)acetamido)heptanamide] | ABL1, ABL2, AURKA, BLK, CSK, EPHA3, EPHB6, FYN, GAK, LCK. LIMK2, MAPK14, NLK, PDK1, PKMYT1, SIK2, SRC, TNK2, WEE1, and YES1 | ABL1, ABL2, AURKA, BLK, CSK, EPHA3, EPHB6, FYN, GAK, LCK, LIMK2, MAPK14, NLK, PDK1, PKMYT1, SIK2, SRC, TNK2, WEE1, YES1 | 20 | – | – |
| Cc1c(NC(=O)c2ccc(C(C)(C)C)cc2)cccc1-c1cn(C)c(=O)c(Nc2ccc(C(=O)N3CCN(CCCCCCNC(=O)COc4cccc5c4C(=O)N(C4CCC(=O)NC4=O)C5=O)CC3)cc2)n1 (centres unmarked) [DD.04.118] | – | – | – | −3.263 | −3.263 |
| CS(=O)(=O)c1ccc(-c2cccn3nc(Nc4cccc(N5CCN(CCCCCCNC(=O)COc6cccc7c6C(=O)N(C6CCC(=O)NC6=O)C7=O)CC5)c4)nc23)cc1 (centres unmarked) [JWG-120] | AAK1 and AURKA | AAK1, AURKA | 2 | – | – |
| Cc1c(NC(=O)c2ccc(C(C)(C)C)cc2)cccc1-c1cn(C)c(=O)c(Nc2ccc(C(=O)N3CCN(CCCCCCNC(=O)CNc4cccc5c4C(=O)N(C4CCC(=O)NC4=O)C5=O)CC3)cc2)n1 (centres unmarked) [DD-03-171] | – | BTK | 1 | – | – |
| O=C(COc1cccc2c1C(=O)N(C1CCC(=O)NC1=O)C2=O)NCCCCCCCN1CCc2cc(Nc3ncc(C4CC4)c(NCCCNC(=O)C4CCC4)n3)ccc2C1 (centres unmarked) [BSJ-04-178] | AAK1, AURKA, AURKB. BMP2K, CDK10, CDK9, GAK, MARK2, MARK3, MARK4, SIK2, STK17A, STK17B, SNRK, ULK1, and WEE1 | AAK1, AURKA, AURKB, BMP2K, CDK10, CDK9, GAK, MARK2, MARK3, MARK4, SIK2, STKI7A, STK17B, SNRK, ULK1, WEE1 | 16 | – | – |
| Cc1ccc(NC(=O)c2cccc(C(C)(C)C#N)c2)cc1Nc1ccc2ncn(CCOCCOCCC(=O)N[C@H](C(=O)N3C[C@H](O)C[C@H]3C(=O)NCc3ccc(-c4scnc4C)cc3)C(C)(C)C)c(=O)c2c1 [DD-02-198] | MAPK14 | MAPK14 | 1 | – | – |
| CC(C)(C)c1cc(NC(=O)Nc2ccc(Oc3ccnc(C(=O)NCCOCCOCCNC(=O)CNc4cccc5c4C(=O)N(C4CCC(=O)NC4=O)C5=O)c3)cc2F)n(-c2ccc3ncccc3c2)n1 (centres unmarked) [TL13-178] | CDK4, LIMK1, MAP3K20, MAPK14, and MAST3 | – | – | – | – |
| CNC(=O)c1ccccc1Nc1cc(Nc2ccc(N3CCN(CCCCCCCCNc4cccc5c4C(=O)N(C4CCC(=O)NC4=O)C5=O)CC3)cc2OC)ncc1C(F)(F)F (centres unmarked) [MFH-5-116-1] | AURKA, NUAK1, PTK2B, RPS6KA1, RPS6KA3, STK33, and WEE1 | AURKA, NUAK1, PTK2B, KPS6KA1, RPS6KA3, STK33, WEE1 | 7 | – | – |
| CC(C)S(=O)(=O)c1ccccc1Nc1nc(Nc2ccc(N3CCN(CCOCCNC(=O)CNc4ccc5c(c4)C(=O)N(C4CCC(=O)NC4=O)C5=O)CC3)cc2)ncc1Cl (centres unmarked) [SK-3-93] | AAK1, ABL2, AURKA, BLK, BMP2K, CDK12, CDK13, CDK17, CDK2, CDK4, CDK5, CDK6, CDK7, CDK9, FER, GAK, ITK. LCK, LIMK2. PRKAA1, PTK2B, RPS6KA1, SRC, and WEE1 | AAK1, ABL2, AURKA, BLK, BMP2K, CDK12, CDK13, CDK17, CDK2, CDK4, CDK5, CDK6, CDK7, CDK9, FER, GAK, ITK, LCK, LIMK2, PRKAA1, PTK2B, RPS6KA1, SRC, WEE1, | 24 | – | – |
| NC(=O)c1c(F)cccc1Nc1nc(Nc2ccc(S(=O)(=O)NCCOCCOCCOCCOCCNc3cccc4c3C(=O)N(C3CCC(=O)NC3=O)C4=O)cc2)ncc1Br (centres unmarked) [TMX-02-138] | – | AAKI, AURKA, AURKB, CDK1, CDK12, CDK16, CDK17, CDK2, CDK5, CDK7, CDK9, CLK1, FER, GSK3A, GSK3B, IRAK3, MAPSK11, MAPK8, MAPK9, NUAK1, PRKAA1, PRKAA2, PTK2B, RPS6KA1, RPS6KA3, STK33, STK38, TTK | 28 | – | – |
| C[C@@H]1C[C@@H](O)c2ncnc(N3CCN(C(=O)[C@H](CNCCCCCCCCCCc4cccc5c4C(=O)N(C4CCC(=O)NC4=O)C5=O)c4ccc(Cl)cc4)CC3)c21 (some centres unmarked) [INY-03-041-01] | – | AKT1, AKT2, AKT3, CDK4, MAPK6, STK17A | 6 | – | – |
| CN1c2ccccc2C(=O)Nc2cnc(Nc3ccc(N4CCN(C(=O)CCOCCNc5cccc6c5C(=O)N(C5CCC(=O)NC5=O)C6=O)CC4)cc3)nc21 (centres unmarked) [ZNL-03-127] | BLK, LIMK1, LIMK2, STK17A, and TNK2 | BLK LIMK1, LIMK2 STK17A, TNK2 | 5 | – | – |
| CNC(=O)c1ccccc1Nc1cc(Nc2ccc(N3CCN(CCOCCOCCNC(=O)CNc4cccc5c4C(=O)N(C4CCC(=O)NC4=O)C5=O)CC3)cc2OC)ncc1C(F)(F)F (centres unmarked) [MFH-5-103-1] | AURKA, CDK1O, CDK7, MAPK7, PTK2B, RPS6KA1, RPS6KA3, STK33, and WEE1 | AURKA, CDK10, CDK7, MAPK7, PTK2B, RPS6KA1, RPS6KA3, STK33, WEE1 | 9 | – | – |
| CC(C)S(=O)(=O)c1ccccc1Nc1nc(Nc2ccc(N3CCN(CCOCCOCCC(=O)NCCNc4cccc5c4CN(C4CCC(=O)NC4=O)C5=O)CC3)cc2)ncc1Cl (centres unmarked) [TL13-97, 3-(2-(2-(4-(4-((5-chloro-4-((2-(isopropylsulfonyl)phenyl)amino)pyrimidin-2-yl)amino)phenyl)piperazin-1-yl)ethoxy)ethoxy)-N-(2-((2-(2,6-dioxopiperidin-3-yl)-1-1722 oxoisoindolin-4-yl)amino)ethyl)propenamide] | AAK1, ABL2, AURKA, AURKB, BLK, BUB1B, CDK13, CDK17, CDK2, CDK4, CDK5. CDK6. CDK7. CDK9. FER, ITK, LCK, LIMK1, LIMK2, MAP3K11, MARK4, PLK4, PRKAA1, RPS6KA1, SRC. STK10, STK38, TEC, TNK2, ULK1, ULK3, and WEE1 | AAK1, ABL2, AURKA, AURKB, BLK, BUB1B, CDK13, CDK17, CDK2, CDK4, CDK5, CDK6, CDK7, CDK9, FER, ITK, LCK, LIMK1, LIMK2, MAP3K11, MARK4, PLK4, PRKAA1, RPS6KA1, SRC, STK10, STK38, TEC, TNK2, ULK1, ULK3, WEE1 | 32 | – | – |
| COc1cc(N2CCN(CCOCCOCCNC(=O)CNc3cccc4c3C(=O)N(C3CCC(=O)NC3=O)C4=O)CC2)ccc1Nc1ncc(Cl)c(Nc2ccccc2S(=O)(=O)C(C)C)n1 (centres unmarked) [TL13-12] | – | AURKA, FER, PRK2 | 3 | – | – |
| CC(C)S(=O)(=O)c1ccccc1Nc1nc(Nc2ccc(N3CCN(CCOCCOCCOCCNC(=O)CNc4ccc5c(c4)C(=O)N(C4CCC(=O)NC4=O)C5=O)CC3)cc2)ncc1Cl (centres unmarked) [SK-3-89] | AAK1, AURKA, BLK, CDK12, CDK17, CDK2, CDK4, CDK5, CDK6, CDK7, CDK9, FER, ITK, LCK, LIMK2, PTK2B, STK10, and WEE1 | AAK1, AURKA, BLK, CDK12, CDK17, CDK2, CDK4, CDK5, CDK6, CDK7, CDK9, FER, ITK, LCK, LIMK2, PTK2B, STK10, WEE1 | 18 | – | – |
| Nc1ncnc2c1c(-c1ccc(Oc3ccccc3)cc1)nn2[C@@H]1CCCN(C(=O)CCCN2CCN(CCNC(=O)CCOCCOCCNc3cccc4c3C(=O)N(C3CCC(=O)NC3=O)C4=O)CC2)C1 (some centres unmarked) [DD-03-119] | ABL2, BLK, CSK, FYN, LCK, SRC, and TEC | ABL2, BLK, CSK, FYN, LCK, SRC, TEC | 3 | – | – |
| Cc1ccc(C(=O)Nc2ccc(CN3CCN(CCOCCOCCNC(=O)CNc4cccc5c4C(=O)N(C4CCC(=O)NC4=O)C5=O)CC3)c(C(F)(F)F)c2)cc1C#Cc1cnc2cccnn12 (centres unmarked) [TL13-150] | – | BLK, CDK5, FER, GAK, IRAK1, LCK, MAP4K2, MAPK14, RIPK1, SRC | 10 | – | – |
| CC(=O)c1c(C)c2cnc(Nc3ccc(N4CCN(CC(=O)NCCOCCOCCOCCNc5cccc6c5C(=O)N(C5CCC(=O)NC5=O)C6=O)CC4)cn3)nc2n(C2CCCC2)c1=O (centres unmarked) [YKL-06-102] | – | CDK4, CDK6, WEE1 | 3 | – | – |
| Cc1cc(Nc2ncc(Cl)c(Nc3ccccc3S(=O)(=O)C(C)C)n2)c(OC(C)C)cc1C1CCN(CCOCCOCCNC(=O)CNc2cccc3c2C(=O)N(C2CCC(=O)NC2=O)C3=O)CC1 (centres unmarked) [TL13-112] | – | FER, PTK2, RPS6KA1 | 3 | – | – |
| CCc1cnn2c(N(Cc3ccc(N)nc3)C(=O)CCOCCOCCOCCNC(=O)CNc3cccc4c3C(=O)N(C3CCC(=O)NC3=O)C4=O)cc(N3CCCC[C@H]3CCO)nc12 (some centres unmarked) [MFH-5-115-2] | CDK4. AURK4. WEE1. STK17A, PLK1, BUB1, TTK, UHMK1, MAP3K1, BUB1B, RIOK2, NUAK1, PIM2, and CSNK1A1 | CDK4, AURK4, WEE1, STK17A, PLK1, BUB1, TTK, UHMK1, MAP3K1, BUB1B, RIOK2, NUAK1, PIM2, CSNK1A1 | 14 | – | – |
| COc1cc(N2CCN(CCOCCOCCC(=O)N[C@H](C(=O)N3C[C@H](O)C[C@H]3C(=O)N[C@@H](C)c3ccc(-c4scnc4C)cc3)C(C)(C)C)CC2)ccc1Nc1ncc2c(n1)N(C)c1ccccc1C(=O)N2CC(F)(F)F [FMF-03-178-1] | – | BLK, CSK | 2 | – | – |
| CC(=O)c1c(C)c2cnc(Nc3ccc(N4CCN(CCOCCOCCOCCNC(=O)COc5cccc6c5C(=O)N(C5CCC(=O)NC5=O)C6=O)CC4)cn3)nc2n(C2CCCC2)c1=O (centres unmarked) [BSJ-03-123] | – | BCKDK, CDK4, CDK6, COQ8A, PDK1, PDK2, PDK3, WEE1 | 8 | – | – |
| CN(C)C(=O)c1cc2cnc(Nc3ccc(N4CCN(CCCCNC(=O)COc5cccc6c5C(=O)N(C5CCC(=O)NC5=O)C6=O)CC4)cn3)nc2n1C1CCCC1 (centres unmarked) [BSJ-04-132] | – | BCKDK, CDK4, CDK6, COQ8A, PDK1, PDK2, PDK3, | 3 | – | – |
